Among the data in patent US20120121540A1 (priority 2007, published 2012) are inhibition values, retold here.

A short description of this assay: HCV replicon assay (luciferase reporter, ET cell line). Format: cell-based. Conditions: Hepatitis C virus, HCV replicon luciferase activity in ET cells. The procedure:
A cell line, ET (Huh-lucubineo-ET) is used for screening of compounds for inhibiting HCV RNA dependent RNA polymerase. The ET cell line is stably transfected with RNA transcripts harboring a I389 luc-ubi-neo/NS3-3′/ET; replicon with firefly luciferase-ubiquitin-neomycin phosphotransferase fusion protein and EMCV-IRES driven NS3-5B polyprotein containing the cell culture adaptive mutations (E1202G; T1280I; K1846T) (Krieger at al, 2001 and unpublished). The ET cells are grown in DMEM (Dulbeco's Modified Eagle's Medium), supplemented with 10% fetal calf serum, 2 mM Glutamine, Penicillin (100 IU/mL)/Streptomycin (100 μg/mL), 1× nonessential amino acids, and 250 μg/mL G418 (“Geneticin”). They are all available through Life Technologies (Bethesda, Md.). The cells are plated at 0.5−1.0×10^4 cells/well in the 96 well plates and incubated for 24 hrs before adding test compound. The compounds are added to the cells to achieve a final concentration of 0.1 nM to 50 μm and a final DMSO (dimethylsulfoxide) concentration of 0.5%. Luciferase activity is measured 48-72 hours later by adding a lysis buffer and the substrate (Catalog number Glo-lysis buffer E2661 and Bright-Glo luciferase system E2620 Promega, Madison, Wis.). Cells should not be too confluent during the assay. Percent inhibition of replication data is plotted relative to no compound control. Under the same condition, cytotoxicity of the compounds are determined using cell proliferation reagent, WST-1 (Roche, Germany). The compounds showing antiviral activities, but no significant cytotoxicities are chosen to determine EC50 and TC50. For these determinations, a 10 point, 2-fold serial dilution for each compound was used, which spans a concentration range of 1000 fold. EC50 and similarly TC50 values were calculated by fitting % inhibition at each concentration to the following equation:
% inhibition=100%/[(EC50/[I])^b+1]
where b is Hill's coefficient.
% inhibition values at a specific concentration, […] for example, can also be derived from the equation above.
Background: In antiviral work, replicon cells carry a viral genome segment that copies itself.

`O=C(N[C@H]1C[C@@H]1c1ccccc1)c1nc2c(C(F)(F)F)cc(-c3ccco3)cn2c1Cl` (stereo in doubt) [Compound 188, 3-Chloro-6-furan-2-yl-8-trifluoromethyl-imidazo[1,2-a]pyridine-2-carboxylic acid (2-phenyl-cyclopropyl)-amide]: testing at 10 µM gave an inhibition of 80.5%.

As for `COC(=O)[C@@H]1CN(C(=O)c2nc3c(C(F)(F)F)cc(-c4ccoc4)cn3c2Cl)C[C@H]1c1ccccc1` (stereo in doubt) [Compound 221, 1-(3-Chloro-6-furan-3-yl-8-trifluoromethyl-imidazo[1,2-a]pyridine-2-carbonyl)-4-phenyl-pyrrolidine-3-carboxylic Acid Methyl Ester], testing at 10 µM gave an inhibition of 73.6%.

As for `CN(C)CCNC(=O)[C@@H]1CN(C(=O)c2nc3c(C(F)(F)F)cc(-c4ccoc4)cn3c2Cl)C[C@H]1c1ccccc1` (stereo in doubt) [Compound 224, 1-(3-Chloro-6-furan-3-yl-8-trifluoromethyl-imidazo[1,2-a]pyridine-2-carbonyl)-4-phenyl-pyrrolidine-3-carboxylic Acid (2-dimethylamino-ethyl)-amide], 10 µM produced 98.7% inhibition.

In the case of `O=C(NCCN1CCOCC1)[C@@H]1CN(C(=O)c2nc3c(C(F)(F)F)cc(-c4ccoc4)cn3c2Cl)C[C@H]1c1ccccc1` (stereo in doubt) [Compound 225], the inhibition at 10 µM is 39.8%.

Consider `COC(=O)[C@H]1[C@@H](c2ccccc2)CCN1C(=O)c1nc2c(C(F)(F)F)cc(-c3ccoc3)cn2c1Cl` (stereo in doubt) [Compound 227, 1-(3-Chloro-6-furan-3-yl-8-trifluoromethyl-imidazO [1,2-a]pyridine-2-carbonyl)-3-phenyl-pyrrolidine-2-carboxylic Acid Methyl Ester], for which the inhibition at 10 µM came to 49.2%.

For the compound `CN(C)CCNC(=O)[C@H]1[C@@H](c2ccccc2)CCN1C(=O)c1nc2c(C(F)(F)F)cc(-c3ccoc3)cn2c1Cl` (stereo in doubt) [Compound 230, 1-(3-Chloro-6-furan-3-yl-8-trifluoromethyl-imidazo[1,2-a]pyridine-2-carbonyl)-3-phenyl-pyrrolidine-2-carboxylic Acid (2-dimethylamino-ethyl)-amide], at 10 µM the inhibition was 53.4%.

In turn, `C[C@@H](CNC(=O)c1nc2c(C(F)(F)F)cc(-c3ccoc3)cn2c1Cl)c1ccccc1` (stereo in doubt) [Compound 413, 3-Chloro-6-furan-3-yl-8-trifluoromethyl-imidazo[1,2-a]pyridine-2-carboxylic Acid (2-phenyl-propyl)-amide] came in with an inhibition at 10 µM of 82.8%.

Turning to `CC(C)(C)OC(=O)N[C@H]1CN(C(=O)c2nc3c(C(F)(F)F)cc(-c4ccoc4)cn3c2Cl)C[C@@H]1c1ccccc1` (stereo in doubt) [Compound 456, (-1-(3-Chloro-6-furan-3-yl-8-trifluoromethyl-imidazo[1,2-a]pyridine-2-carbonyl)-4-phenyl-pyrrolidin-3-yl)-carbamic acid tert-butyl ester], the inhibition at 10 µM was 79.3%.

In turn, `CS(=O)(=O)N[C@H]1CN(C(=O)c2nc3c(C(F)(F)F)cc(-c4ccoc4)cn3c2Cl)C[C@@H]1c1ccccc1` (stereo in doubt) [Compound 458, N-(-1-(3-Chloro-6-furan-3-yl-8-trifluoromethyl-imidazo[1,2-a]pyridine-2-carbonyl)-4-phenyl-pyrrolidin-3-yl)-methanesulfonamide] returned an inhibition at 10 µM of 64.6%.

Turning to `CC(=O)N[C@H]1CN(C(=O)c2nc3c(C(F)(F)F)cc(-c4ccoc4)cn3c2Cl)C[C@@H]1c1ccccc1` (stereo in doubt) [Compound 459, N-(-1-(3-Chloro-6-furan-3-yl-8-trifluoromethyl-imidazo[1,2-a]pyridine-2-carbonyl)-4-phenyl-pyrrolidin-3-yl)-acetamide], the inhibition at 10 µM is 25.5%.

For the compound `O=C(NCc1cccs1)c1cc2cc(-c3ccccc3)cc(I)n2n1` [Compound 102, 7-Iodo-5-phenyl-pyrazolo[1,5-a]pyridine-2-carboxylic Acid (thiophen-2-ylmethyl)-amide], the inhibition at 10 µM was found to be 81%.

Consider `O=C(NCc1cccs1)c1nc2c(C(F)(F)F)cc(-c3ccccc3)nc2[nH]1` [Compound 103, 5-Phenyl-7-trifluoromethyl-3H-imidazo[4,5-b]pyridine-2-carboxylic acid (thiophen-2-ylmethyl)-amide], for which the inhibition at 10 µM was 54.7%.

For `O=C(NCc1cccs1)c1[nH]c2c(C(F)(F)F)cc(-c3ccccc3)cc2c1Cl` [Compound 104, 3-Chloro-5-phenyl-7-trifluoromethyl-1H-indole-2-carboxylic Acid (thiophen-2-ylmethyl)-amide], 10 µM produced 44% inhibition.

`O=C(NCc1cccs1)c1cc2cc(-c3ccco3)cc(Cl)c2[nH]1` [Compound 105, 7-Chloro-5-furan-2-yl-1H-indole-2-carboxylic acid (thiophen-2-ylmethyl)-amide]: 10 µM produced 58.2% inhibition.

`O=C(NCc1cccs1)c1cc2cc(-c3ccccc3)cc(Cl)c2[nH]1` [Compound 106, 7-Chloro-5-phenyl-1H-indole-2-carboxylic Acid (thiophen-2-ylmethyl)-amide] came in with an inhibition at 10 µM of 60.8%.

Compound `O=C(NCc1cccs1)c1cc2cc(-c3ccccc3)cc(C(F)(F)F)n2n1` [Compound 107, 5-Phenyl-7-trifluoromethyl-pyrazolo[1,5-a]pyridine-2-carboxylic Acid (thiophen-2-ylmethyl)-amide] showed an inhibition at 10 µM of 82.4%.

`N#Cc1cc(-c2ccccc2)cc2cc(C(=O)NCc3cccs3)nn12` [Compound 108, 7-Cyano-5-phenyl-pyrazolo[1,5-a]pyridine-2-carboxylic acid (thiophen-2-ylmethyl)-amide]: the inhibition at 10 µM came out at 52.2%.

For the compound `O=C(NCc1cccs1)c1[nH]c2c(Cl)cc(-c3ccccc3)cc2c1Cl` [Compound 110, 3,7-Dichloro-5-phenyl-1H-indole-2-carboxylic acid (thiophen-2-ylmethyl)-amide], the inhibition at 10 µM stood at 35.9%.

On to `O=C(NCc1cccs1)c1cc2cc(-c3ccccc3)cc(Br)n2n1` [Compound 111, 7-Bromo-5-phenyl-pyrazolo[1,5-a]pyridine-2-carboxylic Acid (thiophen-2-ylmethyl)-amide], for which the inhibition at 10 µM amounted to 64.2%.

On to `O=C(NCc1cccs1)c1nn2c(Br)cc(-c3ccccc3)cc2c1Cl` [Compound 112, 7-Bromo-3-chloro-5-phenyl-pyrazolo[1,5-a]pyridine-2-carboxylic Acid (thiophen-2-ylmethyl)-amide], for which the inhibition at 10 µM worked out at 74.2%.

The compound `O=C(NCc1cccs1)c1nn2c(Br)cc(-c3ccccc3)cc2c1Br` [Compound 113, 3,7-dibromo-5-phenyl-pyrazolo[1,5-a]pyridine-2-carboxylic Acid (thiophen-2-ylmethyl)-amide] returned an inhibition at 10 µM of 77.3%.

The compound `Cc1cc(-c2ccccc2)cc2cc(C(=O)NCc3cccs3)nn12` [Compound 114, 7-Methyl-5-phenyl-pyrazolo[1,5-a]pyridine-2-carboxylic acid (thiophen-2-ylmethyl)-amide] registered an inhibition at 10 µM of 37.9%.

In the case of `Cc1c(C(=O)NCc2cccs2)nn2c(C)cc(-c3ccccc3)cc12` [Compound 115, 3,7-dimethyl-5-phenyl-pyrazolo[1,5-a]pyridine-2-carboxylic Acid (thiophen-2-ylmethyl)-amide], the inhibition at 10 µM came out at 55.3%.

For orientation: inhibition means the change of the read-out against control, counted positive when it falls.
